# Data reported in patent US20210254056A1, “IDENTIFICATION AND TARGETED MODULATION OF GENE SIGNALING NETWORKS” (CAMP4 THERAPEUTICS CORPORATION, priority 2017, published 2021).
# Read-outs that look alike come from different tables or passages of the source.
# Test system: hepatocytes
# Experiment: RNA-seq of hepatocytes treated with Phase III failure compounds
# Details: for significant modulation of expression of disease genes: q≤0.05, genes in the value or listed in the block; for significant modulation of expression of any of the genes analyzed: p≤0.05
# Procedure: RNA-seq was performed to determine the effects of the compounds on hepatocytes.
# Significance was determined by the criteria of FPKM≥0.5, a log 2(fold-change)≥1, and a […].
smiles,measurement,setting,value
COc1cc2c(Oc3ccc4[nH]c(C)cc4c3F)ncnc2cc1OCCCN1CCCC1 [Cediranib],"RNA-seq results, CYP2B6 expression",,−0.46
same,"RNA-seq results, CYP2C19 expression",,−0.80
same,"RNA-seq results, CYP2D6 expression",,−0.12
same,"RNA-seq results, CYP3A4 expression",,−0.75
same,"RNA-seq results, CYP7B1 expression",,−0.93
same,"RNA-seq results, CYP39A1 expression",,−0.61
same,RNA-seq results: CYP2B6 expression,,0.41
same,RNA-seq results: CYP2C19 expression,,−1
same,RNA-seq results: CYP2D6 expression,,0.79
same,RNA-seq results: CYP3A4 expression,,1.58
same,RNA-seq results: CYP7B1 expression,,−0.02
same,RNA-seq results: CYP39A1 expression,,−0.24
same,significant modulation of expression of disease genes,"RNA-seq, hepatocytes",significantly (q≤0.05) modulate expression
same,effect on disease gene expression,"RNA-seq, hepatocytes",effect on expression of too many disease genes
same,genes down-regulated by the compound,"RNA-seq, hepatocytes, gene named in the value",down-regulate Factor V levels
same,RNA-seq results: A1BG expression,"gene A1BG, hepatocytes",0.15
same,RNA-seq results: AGTR1 expression,"gene AGTR1, hepatocytes",−0.32
same,RNA-seq results: AGXT expression,"gene AGXT, hepatocytes",−0.23
same,RNA-seq results: AHI1 expression,"gene AHI1, hepatocytes",−0.17
same,RNA-seq results: AMPD3 expression,"gene AMPD3, hepatocytes",−0.52
same,RNA-seq results: AMT expression,"gene AMT, hepatocytes",−0.23
same,RNA-seq results: ANGPTL3 expression,"gene ANGPTL3, hepatocytes",−1.40
same,RNA-seq results: ANKS4B expression,"gene ANKS4B, hepatocytes",−0.31
same,RNA-seq results: ANKS6 expression,"gene ANKS6, hepatocytes",0.09
same,RNA-seq results: ANPEP expression,"gene ANPEP, hepatocytes",−0.85
same,RNA-seq results: AOC2 expression,"gene AOC2, hepatocytes",−0.47
same,RNA-seq results: APOA2 expression,"gene APOA2, hepatocytes",0.16
same,RNA-seq results: APOA5 expression,"gene APOA5, hepatocytes",−0.08
same,RNA-seq results: APOB expression,"gene APOB, hepatocytes",−0.99
same,RNA-seq results: COG5 expression,"gene COG5, hepatocytes",−0.45
same,RNA-seq results: COG6 expression,"gene COG6, hepatocytes",−0.46
same,RNA-seq results: COL1A1 expression,"gene COL1A1, hepatocytes",−0.72
same,RNA-seq results: COX6A1 expression,"gene COX6A1, hepatocytes",0.16
same,RNA-seq results: CP expression,"gene CP, hepatocytes",0.53
same,RNA-seq results: CPS1 expression,"gene CPS1, hepatocytes",−0.28
same,RNA-seq results: CPT1A expression,"gene CPT1A, hepatocytes",0.16
same,RNA-seq results: CPT2 expression,"gene CPT2, hepatocytes",1.26
same,RNA-seq results: CROT expression,"gene CROT, hepatocytes",0.55
same,RNA-seq results: CSPP1 expression,"gene CSPP1, hepatocytes",−0.7
same,RNA-seq results: CTC1 expression,"gene CTC1, hepatocytes",−0.9
same,RNA-seq results: CTDSP2 expression,"gene CTDSP2, hepatocytes",−0.18
same,RNA-seq results: CTH expression,"gene CTH, hepatocytes",0.66
same,RNA-seq results: CTNS expression,"gene CTNS, hepatocytes",−1.18
same,RNA-seq results: CTSF expression,"gene CTSF, hepatocytes",0.6
same,RNA-seq results: CTSK expression,"gene CTSK, hepatocytes",0.02
same,RNA-seq results: CYB5A expression,"gene CYB5A, hepatocytes",−0.16
same,RNA-seq results: CYB5R3 expression,"gene CYB5R3, hepatocytes",0.14
same,RNA-seq results: CYP27A1 expression,"gene CYP27A1, hepatocytes",0.51
same,RNA-seq results: DAO expression,"gene DAO, hepatocytes",0.23
same,RNA-seq results: DBT expression,"gene DBT, hepatocytes",−0.33
same,RNA-seq results: DCDC2 expression,"gene DCDC2, hepatocytes",−1.25
same,RNA-seq results: DCXR expression,"gene DCXR, hepatocytes",0.96
same,RNA-seq results: FABP1 expression,"gene FABP1, hepatocytes",0.4
same,RNA-seq results: FADD expression,"gene FADD, hepatocytes",−0.23
same,RNA-seq results: FAM111A expression,"gene FAM111A, hepatocytes",−0.68
same,RNA-seq results: FAM111B expression,"gene FAM111B, hepatocytes",−0.13
same,RNA-seq results: FAN1 expression,"gene FAN1, hepatocytes",−1.14
same,RNA-seq results: FARS2 expression,"gene FARS2, hepatocytes",−0.84
same,RNA-seq results: FASLG expression,"gene FASLG, hepatocytes",−1.48
same,RNA-seq results: FGA expression,"gene FGA, hepatocytes",0.87
same,RNA-seq results: FGD1 expression,"gene FGD1, hepatocytes",−0.22
same,RNA-seq results: FGFR2 expression,"gene FGFR2, hepatocytes",−0.16
same,RNA-seq results: FIG4 expression,"gene FIG4, hepatocytes",−0.45
same,RNA-seq results: FIS1 expression,"gene FIS1, hepatocytes",−0.27
same,RNA-seq results: FTCD expression,"gene FTCD, hepatocytes",−0.68
same,RNA-seq results: FTH1 expression,"gene FTH1, hepatocytes",−0.17
same,RNA-seq results: FUCA1 expression,"gene FUCA1, hepatocytes",1.44
same,RNA-seq results: FXN expression,"gene FXN, hepatocytes",−1.56
same,RNA-seq results: G6PC3 expression,"gene G6PC3, hepatocytes",−0.89
same,RNA-seq results: G6PC expression,"gene G6PC, hepatocytes",0.32
same,RNA-seq results: G6PD expression,"gene G6PD, hepatocytes",1.51
same,RNA-seq results: GALK1 expression,"gene GALK1, hepatocytes",−0.27
same,RNA-seq results: GALK2 expression,"gene GALK2, hepatocytes",0.04
same,RNA-seq results: GALT expression,"gene GALT, hepatocytes",−0.02
same,RNA-seq results: GATA6 expression,"gene GATA6, hepatocytes",−0.1
same,RNA-seq results: GATM expression,"gene GATM, hepatocytes",−0.66
same,RNA-seq results: GBA expression,"gene GBA, hepatocytes",−0.06
same,RNA-seq results: GBE1 expression,"gene GBE1, hepatocytes",−0.62
same,RNA-seq results: GCH1 expression,"gene GCH1, hepatocytes",1.49
same,RNA-seq results: GCKR expression,"gene GCKR, hepatocytes",−1.15
same,RNA-seq results: GCLC expression,"gene GCLC, hepatocytes",0.3
same,RNA-seq results: GOSH expression,"gene GOSH, hepatocytes",−0.39
same,RNA-seq results: RRM2B,"gene RRM2B, hepatocytes",−0.75
same,RNA-seq results: RSAD1,"gene RSAD1, hepatocytes",0.13
same,RNA-seq results: SAMHD1,"gene SAMHD1, hepatocytes",−1.05
same,RNA-seq results: SC5D,"gene SC5D, hepatocytes",0.51
same,RNA-seq results: SCARB1,"gene SCARB1, hepatocytes",−0.30
same,RNA-seq results: SCN9A,"gene SCN9A, hepatocytes",−0.39
same,RNA-seq results: SDCCAG8,"gene SDCCAG8, hepatocytes",−0.30
same,RNA-seq results: SEPN1,"gene SEPN1, hepatocytes",−0.85
same,RNA-seq results: SERAC1,"gene SERAC1, hepatocytes",−0.14
same,RNA-seq results: SERPINA1,"gene SERPINA1, hepatocytes",−0.19
same,RNA-seq results: SERPING1,"gene SERPING1, hepatocytes",−0.29
same,RNA-seq results: SERPINI1,"gene SERPINI1, hepatocytes",−0.73
same,RNA-seq results: SETBP1,"gene SETBP1, hepatocytes",−0.30
same,RNA-seq results: SFXN4,"gene SFXN4, hepatocytes",−0.01
same,RNA-seq results: SLC10A1,"gene SLC10A1, hepatocytes",−0.88
same,RNA-seq results: SLC10A3,"gene SLC10A3, hepatocytes",−0.50
same,RNA-seq results: SLC10A5,"gene SLC10A5, hepatocytes",−0.90
same,RNA-seq results: SLC10A7,"gene SLC10A7, hepatocytes",−0.52
same,RNA-seq results: SLC11A2,"gene SLC11A2, hepatocytes",−0.59
same,RNA-seq results: SLC19A1,"gene SLC19A1, hepatocytes",−0.45
same,RNA-seq results: SLC19A2,"gene SLC19A2, hepatocytes",−0.03
same,RNA-seq results: SLC19A3,"gene SLC19A3, hepatocytes",−0.68
same,RNA-seq results: SLC22A1,"gene SLC22A1, hepatocytes",−0.13
same,RNA-seq results: SLC22A5,"gene SLC22A5, hepatocytes",0.06
same,RNA-seq results: SLC25A1,"gene SLC25A1, hepatocytes",−0.09
same,RNA-seq results: SLC25A10,"gene SLC25A10, hepatocytes",−0.40
same,RNA-seq results: SLC25A12,"gene SLC25A12, hepatocytes",−0.41
same,RNA-seq results: SLC25A13,"gene SLC25A13, hepatocytes",−0.29
same,RNA-seq results: SLC25A15,"gene SLC25A15, hepatocytes",−0.47
same,RNA-seq results: SLC25A19,"gene SLC25A19, hepatocytes",0.26
same,RNA-seq results: SLC25A20,"gene SLC25A20, hepatocytes",−0.32
same,RNA-seq results: SLC25A29,"gene SLC25A29, hepatocytes",−0.11
same,RNA-seq results: SLC25A32,"gene SLC25A32, hepatocytes",−0.13
C=CCNC1=C2C[C@@H](C)C[C@H](OC)[C@H](O)[C@@H](C)/C=C(\C)[C@H](OC(N)=O)[C@@H](OC)/C=C\C=C(/C)C(=O)NC(=CC1=O)C2=O [Compound 17-AAG],Number (#) of genes having significantly changed expression,,1558
Cc1ccc2c(=O)c3cccc(CC(=O)O)c3oc2c1C [DMXAA],significant changes in gene expression,"RNA-seq of Table 36, FPKM≥0.5, log 2(fold-change)≥1, q-value≤0.05",not observed to cause any significant changes in gene expression
same,significant modulation of expression of any of the genes analyzed,"RNA-seq, hepatocytes",not observed to significantly modulate expression
same,effect on disease gene expression,"RNA-seq, hepatocytes",no effect on any disease gene
"COc1cc2ncnc(Nc3ccc(F)c(Cl)c3)c2cc1NC(=O)/C=C/CN1CCCCC1 [Dacomitinib (PF299804, PF299), Dacomitinib]",significant modulation of expression of any of the genes analyzed,"RNA-seq, hepatocytes",not observed to significantly modulate expression
CCC(CC)CC1(C(=O)Nc2ccccc2SC(=O)C(C)C)CCCCC1 [Dalcetrapib],Number (#) of genes having significantly changed expression,"RNA-seq, Phase III failure compounds, hepatocytes, significance: FPKM≥0.5, log 2(fold-change)≥1, q-value≥0.05 (so in the source)",43
same,significant modulation of expression of disease genes,"RNA-seq, hepatocytes",significantly (q≤0.05) modulate expression of CYP3A4 and GOSH
same,effect on disease gene expression,"RNA-seq, hepatocytes",no effect on any disease gene
